{"source": "patent US20230210896A9", "about": "“METHOD FOR T CELL ACTIVATION FOR CANCER TREATMENT” (GOOD T CELLS, INC., priority 2019, published 2023)", "system": "CD8-expressing T cells", "assay": "ELISPOT of IFN-γ secretion in T cells activated by dendritic cells loaded with LMP2a epitope groups", "format": "cell-based, human", "conditions": "DC:CD8 T cells 1:10, 18 hours", "key": {"[1]": {"conditions": "healthy human donor N5 (N5-1 and N5-2, repeated twice), FIGS. 1 and 2"}, "[2]": {"conditions": "healthy human donor N15, FIG. 4"}}}
{"substance": "3 (MGAGPPSPGGDPDGD; LMP2a epitope) [compound 3]", "values": [{"measurement": "expression of IFN-γ in T cells (ELISPOT)", "setting": "[1]", "value": "increased expression of IFN-γ"}, {"measurement": "expression of IFN-γ in T cells (ELISPOT)", "setting": "healthy human donor N9, FIG. 3", "value": "increased expression of IFN-γ"}, {"measurement": "expression of IFN-γ in T cells (ELISPOT)", "setting": "[2]", "value": "increased expression of IFN-γ"}]}
{"substance": "5 (GGDPDGDDGGNNSQY; LMP2a epitope) [compound 5]", "values": [{"measurement": "expression of IFN-γ in T cells (ELISPOT)", "setting": "[2]", "value": "increased expression of IFN-γ"}]}
{"substance": "8 (SQYPSASGSYGNTPT; LMP2a epitope) [compound 8]", "values": [{"measurement": "expression of IFN-γ in T cells (ELISPOT)", "setting": "healthy human donor N9, FIG. 3", "value": "increased expression of IFN-γ"}, {"measurement": "expression of IFN-γ in T cells (ELISPOT)", "setting": "[2]", "value": "increased expression of IFN-γ"}]}
{"substance": "9 (SASGSYGNTPTPPND; LMP2a epitope) [compound 9]", "values": [{"measurement": "expression of IFN-γ in T cells (ELISPOT)", "setting": "[1]", "value": "increased expression of IFN-γ"}, {"measurement": "expression of IFN-γ in T cells (ELISPOT)", "setting": "[2]", "value": "increased expression of IFN-γ"}]}
{"substance": "12 (PNDEERESNEEPPPP; LMP2a epitope) [compound 12]", "values": [{"measurement": "expression of IFN-γ in T cells (ELISPOT)", "setting": "[1]", "value": "increased expression of IFN-γ"}]}
{"substance": "15 (PPPYEDLDWGNGDRH; LMP2a epitope) [compound 15]", "values": [{"measurement": "expression of IFN-γ in T cells (ELISPOT)", "setting": "[1]", "value": "increased expression of IFN-γ"}, {"measurement": "expression of IFN-γ in T cells (ELISPOT)", "setting": "healthy human donor N9, FIG. 3", "value": "increased expression of IFN-γ"}, {"measurement": "expression of IFN-γ in T cells (ELISPOT)", "setting": "[2]", "value": "increased expression of IFN-γ"}]}
{"substance": "16 (EDLDWGNGDRHSDYQ; LMP2a epitope) [compound 16]", "values": [{"measurement": "expression of IFN-γ in T cells (ELISPOT)", "setting": "healthy human donor N9, FIG. 3", "value": "increased expression of IFN-γ"}]}
{"substance": "18 (DRHSDYQPLGNQDPS; LMP2a epitope) [compound 18]", "values": [{"measurement": "expression of IFN-γ in T cells (ELISPOT)", "setting": "[1]", "value": "increased expression of IFN-γ"}]}
{"substance": "19 (DYQPLGNQDPSLYLG; LMP2a epitope) [compound 19]", "values": [{"measurement": "expression of IFN-γ in T cells (ELISPOT)", "setting": "healthy human donor N9, FIG. 3", "value": "increased expression of IFN-γ"}]}
{"substance": "20 (LGNQDPSLYLGLQHD; LMP2a epitope) [compound 20]", "values": [{"measurement": "expression of IFN-γ in T cells (ELISPOT)", "setting": "healthy human donor N9, FIG. 3", "value": "increased expression of IFN-γ"}]}
